Measured values published in patent US12636297B2, “Boronic acid derivatives and therapeutic uses thereof” (priority 2019, dated 2026).
Read-outs that look alike come from different tables or passages of the source.

Legend:
[1] = test system: carbapenem-resistant (CR) Acinetobacter baumannii (AB); assay: Broth microdilution MIC of β-lactams alone and with Compound 1 against carbapenem-resistant Acinetobacter baumannii clinical isolates; assay type: cell-based; details: Compound 1 at fixed 4 μg/mL; for % susceptible, [S]: breakpoints MER ≤8 μg/mL, TOL ≤4 μg/mL
Procedure: (§1) In this example the in vitro activity of Compound 1 was evaluated in combination with several β-lactams including sulbactam, meropenem, and ceftolozane against clinical isolates of carbapenem-resistant (CR) Acinetobacter baumannii (AB) and Pseudomonas aeruginosa (PA).

[2] = test system: Pseudomonas aeruginosa (PA); assay: Broth microdilution MIC of β-lactams alone and with Compound 1 against Pseudomonas aeruginosa clinical isolates (representative and challenge panels); assay type: cell-based; details: for MIC Distribution, % of isolates: Compound 1 at 8 μg/mL; for MIC Distribution, % of isolates / Minimum Inhibitory Concentration Distribution, % of isolates: AVI and TAZ at 4 μg/mL; for Minimum Inhibitory Concentration Distribution, % of isolates: representative panel of PA (N = 500), without Compound 1; for % susceptible, [S] / MIC50 / MIC90: Compound 1, AVI, and TAZ at fixed 4 μg/mL; for % susceptible, [S]: breakpoints MER ≤8, TOL ≤4, CAZ ≤8 μg/mL; for MIC50 / MIC90: Pseudomonas aeruginosa
Procedure: as §1

P. aeruginosa = assay: Susceptibility testing of 262 P. aeruginosa strains with meropenem MIC >2 μg/mL; assay type: cell-based, Pseudomonas aeruginosa; details: Compound 1 at 8 μg/mL, breakpoints ≤8 μg/mL meropenem and cefepime, ≤4 μg/mL ceftolozane, ≤16 μg/mL piperacillin
Procedure: In addition, 509 Carbapenem-Resistant Enterobacteriaceae were tested with meropenem, cefepime, and ceftolozane alone and in combination with Compound 1 at 8 μg/mL. Furthermore, 262 strains of P. aeruginosa with a meropenem MIC>2 μg/mL were tested with meropenem, ceftolozane, cefepime and piperacillin alone and in combination with Compound 1 at 8 μg/mL.
262 strains of P. aeruginosa having a meropenem MIC greater than 2 μg/mL were tested with meropenem, ceftolozane, cefepime and piperacillin alone and Compound 1 at 8 μg/mL.

[3] = test system: carbapenem resistant Enterobacteriaceae (CRE); assay: MIC of antibiotics with Compound 1 against panel of 510 CRE clinical isolates; assay type: cell-based; details: antibiotic alone
Procedure: In this example, the antibiotics meropenem, cefepime, ceftolozane and cefiderocol, were tested in combination with Compound 1 at 4 μg/ml and 8 μg/ml against a panel of 510 clinical isolates representing various types of carbapenem resistant Enterobacteriaceae (CRE). Cefiderocol was tested at standard conditions, in […] media.

[4] = test system: carbapenem resistant Acinetobacter baumannii; assay: MIC of antibiotics with Compound 1 against panel of 503 carbapenem resistant Acinetobacter baumannii clinical isolates; assay type: cell-based; details: carbapenem resistant Acinetobacter baumannii (N = 503); antibiotic alone
Procedure: In another experiment, various antibiotics, meropenem, cefepime, ceftolozane and cefiderocol, were tested in combination with Compound 1 at 4 μg/ml and 8 μg/ml against the panel of 503 clinical isolates of carbapenem resistant Acinetobacter baumannii. […] Cefiderocol was tested at standard conditions, in […] media.

[5] = non-carbapenemase producing CRE, N = 45

## C[C@@H](O)[C@H]1C(=O)N2C(C(=O)O)=C(S[C@@H]3CN[C@H](C(=O)N(C)C)C3)[C@H](C)[C@H]12 [MER, meropenem]
[1]; AB CP (100), defined carbapenemases
  % susceptible, [S]: (0.0) %
[1]; Acinetobacter baumannii, AB CP (100), defined carbapenemases, read-out: MIC50
  MIC50: > 32 µg/mL
[1]; Acinetobacter baumannii, AB CP (100), defined carbapenemases, read-out: MIC90
  MIC90: > 32 µg/mL
[1]; CRAB (300)
  MIC50: >32/>32 μg/mL
  MIC90: >32/>32 μg/mL
  % susceptible, [S]: (1.0) %
[2]; MIC 0.125 μg/mL, PA CAZ-AVI R (CAZ-AVI >8 μg/mL)
  MIC Distribution, % of isolates: .3%
[2]; MIC 0.125 μg/mL, PA MER NS (MER >2 μg/mL), N = 612
  MIC Distribution, % of isolates: 0.0%
[2]; MIC 0.125 μg/mL, PA TOL-TAZ NS (TOL-TAZ >4 μg/mL)
  MIC Distribution, % of isolates: 1.3%
[2]; MIC 0.125 μg/mL
  Minimum Inhibitory Concentration Distribution, % of isolates: 14.2%
[2]; MIC 0.25 μg/mL, PA CAZ-AVI R (CAZ-AVI >8 μg/mL)
  MIC Distribution, % of isolates: .6%
[2]; MIC 0.25 μg/mL, PA MER NS (MER >2 μg/mL), N = 612
  MIC Distribution, % of isolates: .0%
[2]; MIC 0.25 μg/mL, PA TOL-TAZ NS (TOL-TAZ >4 μg/mL)
  MIC Distribution, % of isolates: 2.7%
[2]; MIC 0.25 μg/mL
  Minimum Inhibitory Concentration Distribution, % of isolates: 33.0%
[2]; MIC 0.5 μg/mL, PA CAZ-AVI R (CAZ-AVI >8 μg/mL)
  MIC Distribution, % of isolates: .2%
[2]; MIC 0.5 μg/mL, PA MER NS (MER >2 μg/mL), N = 612
  MIC Distribution, % of isolates: .0%
[2]; MIC 0.5 μg/mL, PA TOL-TAZ NS (TOL-TAZ >4 μg/mL)
  MIC Distribution, % of isolates: 3.7%
[2]; MIC 0.5 μg/mL
  Minimum Inhibitory Concentration Distribution, % of isolates: 51.0%
[2]; MIC 1 μg/mL, PA CAZ-AVI R (CAZ-AVI >8 μg/mL)
  MIC Distribution, % of isolates: .5%
[2]; MIC 1 μg/mL, PA MER NS (MER >2 μg/mL), N = 612
  MIC Distribution, % of isolates: .0%
[2]; MIC 1 μg/mL, PA TOL-TAZ NS (TOL-TAZ >4 μg/mL)
  MIC Distribution, % of isolates: 6.0%
[2]; MIC 1 μg/mL
  Minimum Inhibitory Concentration Distribution, % of isolates: 66.2%
[2]; MIC 2 μg/mL, PA CAZ-AVI R (CAZ-AVI >8 μg/mL)
  MIC Distribution, % of isolates: .8%
[2]; MIC 2 μg/mL, PA MER NS (MER >2 μg/mL), N = 612
  MIC Distribution, % of isolates: .0%
[2]; MIC 2 μg/mL, PA TOL-TAZ NS (TOL-TAZ >4 μg/mL)
  MIC Distribution, % of isolates: 8.7%
[2]; MIC 2 μg/mL
  Minimum Inhibitory Concentration Distribution, % of isolates: 73.2%
[2]; MIC 4 μg/mL, PA CAZ-AVI R (CAZ-AVI >8 μg/mL)
  MIC Distribution, % of isolates: 1.0%
[2]; MIC 4 μg/mL, PA MER NS (MER >2 μg/mL), N = 612
  MIC Distribution, % of isolates: .5%
[2]; MIC 4 μg/mL, PA TOL-TAZ NS (TOL-TAZ >4 μg/mL)
  MIC Distribution, % of isolates: 13.7%
[2]; MIC 4 μg/mL
  Minimum Inhibitory Concentration Distribution, % of isolates: 79.8%
[2]; MIC 8 μg/mL, PA CAZ-AVI R (CAZ-AVI >8 μg/mL)
  MIC Distribution, % of isolates: 8.2%
[2]; MIC 8 μg/mL, PA MER NS (MER >2 μg/mL), N = 612
  MIC Distribution, % of isolates: 7.5%
[2]; MIC 8 μg/mL, PA TOL-TAZ NS (TOL-TAZ >4 μg/mL)
  MIC Distribution, % of isolates: 22.1%
[2]; MIC 8 μg/mL
  Minimum Inhibitory Concentration Distribution, % of isolates: 84.8%
[2]; MIC 16 μg/mL, PA CAZ-AVI R (CAZ-AVI >8 μg/mL)
  MIC Distribution, % of isolates: 8.9%
[2]; MIC 16 μg/mL, PA MER NS (MER >2 μg/mL), N = 612
  MIC Distribution, % of isolates: 6.7%
[2]; MIC 16 μg/mL, PA TOL-TAZ NS (TOL-TAZ >4 μg/mL)
  MIC Distribution, % of isolates: 32.8%
[2]; MIC 16 μg/mL
  Minimum Inhibitory Concentration Distribution, % of isolates: 90.4%
[2]; MIC 32 μg/mL, PA CAZ-AVI R (CAZ-AVI >8 μg/mL)
  MIC Distribution, % of isolates: 3.2%
[2]; MIC 32 μg/mL, PA MER NS (MER >2 μg/mL), N = 612
  MIC Distribution, % of isolates: 0.4%
[2]; MIC 32 μg/mL, PA TOL-TAZ NS (TOL-TAZ >4 μg/mL)
  MIC Distribution, % of isolates: 58.2%
[2]; MIC 32 μg/mL
  Minimum Inhibitory Concentration Distribution, % of isolates: 95.4%
[2]; MIC >32 μg/mL, PA CAZ-AVI R (CAZ-AVI >8 μg/mL)
  MIC Distribution, % of isolates: 100.0%
[2]; MIC >32 μg/mL, PA MER NS (MER >2 μg/mL), N = 612
  MIC Distribution, % of isolates: 100.0%
[2]; MIC >32 μg/mL, PA TOL-TAZ NS (TOL-TAZ >4 μg/mL)
  MIC Distribution, % of isolates: 100.0%
[2]; MIC >32 μg/mL
  Minimum Inhibitory Concentration Distribution, % of isolates: 100.0%
[2]; MIC ≤0.06 μg/mL
  Minimum Inhibitory Concentration Distribution, % of isolates: 4.8%
[2]; MIC ≥0.06 μg/mL, PA CAZ-AVI R (CAZ-AVI >8 μg/mL)
  MIC Distribution, % of isolates: .3%
[2]; MIC ≥0.06 μg/mL, PA MER NS (MER >2 μg/mL), N = 612
  MIC Distribution, % of isolates: 0.0%
[2]; MIC ≥0.06 μg/mL, PA TOL-TAZ NS (TOL-TAZ >4 μg/mL)
  MIC Distribution, % of isolates: 0.3%
[2]; PA (CAZ-AVI MIC >8) (37)
  % susceptible, [S]: (18.9) %
  MIC50: 32 µg/mL
  MIC90: > 32 µg/mL
[2]; PA (Challenge, 652)
  % susceptible, [S]: (31.9) %
  MIC50: 16 µg/mL
  MIC90: > 32 µg/mL
[2]; PA (MER MIC >2) (612)
  % susceptible, [S]: (27.5) %
  MIC50: 32 µg/mL
  MIC90: > 32 µg/mL
[2]; PA (Representative, 500)
  % susceptible, [S]: (84.8) %
  MIC50: 0.5 µg/mL
  MIC90: 16 µg/mL
[2]; PA (TOL-TAZ MIC >4) (39)
  % susceptible, [S]: (21.1) %
  MIC50: 32 µg/mL
  MIC90: > 32 µg/mL
P. aeruginosa; All strains (N = 262), meropenem MIC >2 μg/mL
  % of susceptible organisms at breakpoints: 42%
P. aeruginosa; MBL (N = 56)
  % of susceptible organisms at breakpoints: 7%
P. aeruginosa; No MBL (N = 206)
  % of susceptible organisms at breakpoints: 51%
[3]; CRE KPC, N = 168
  MIC50: 32 µg/mL
  MIC90: > 32 µg/mL
[3]; CRE MBL, N = 145
  MIC50: > 32 µg/mL
  MIC90: > 32 µg/mL
[3]; CRE OXA, N = 152
  MIC50: 32 µg/mL
  MIC90: > 32 µg/mL
[3]; [5]
  MIC50: 8 µg/mL
  MIC90: 16 µg/mL
[4]
  MIC50: > 32 µg/mL
  MIC90: > 32 µg/mL
